Laboratory results published in patent US12678454B2, “Bicarbonate as a potentiator for antimicrobial agents” (priority 2017, dated 2026).
Read-outs that look alike come from different tables or passages of the source. Marks after values point to notes of the source that are not given here. Bridge positions count the residues as written; N and C are the ends. Square brackets hold non-standard residues; d marks the D form. Peptide text beside a SMILES is read from it. * marks the point of attachment. Ileψ(thiazoline)Cys = CC[C@H](C)[C@H](N)C1=N[C@H](C(=O)*)CS1; dOrn = NCCC[C@@H](N)C(=O)O

How the values were obtained:
[1] = tested on: S. aureus (Strain Newman); assay: MIC determination (CLSI protocol) in MHB; assay type: cell-based, Staphylococcus aureus; details: for MIC, S. aureus, MHB−: MHB without sodium bicarbonate
Protocol: (§1) In the following experiments, bacterial cells were cultured in 96-well microtiter plates in cation-adjusted Mueller-Hinton Broth (MHB) for 18 h at 37° C. The main strains used in this study were E. coli (K-12 BW25113) (placed in stationary incubator) and S. aureus (Strain Newman) (incubated at 250 r.p.m). Knockout strains (ΔtolcC and ΔychM) were used from the Keio knockout collection (Baba, T. et al. Construction of Escherichia coli K-12 in-frame, single-gene knockout mutants: the Keio collection. Mol Syst Biol 2, 2006 0008, doi:10.1038/msb4100050 (2006)). For minimum concentration for inhibition (MIC) determination and checkerboard analyses, Clinical & Laboratory Standards Institute (CLSI) protocol was used. […] DiSC3 loading of S. aureus cells was performed as previously described (Farha, M. A., Verschoor, C. P., Bowdish, D. & Brown, E. D. Collapsing the proton motive force to identify synergistic combinations against Staphylococcus aureus. Chemistry & biology 20, 1168-1178, doi:10.1016/j.chembiol.2013.07.006 (2013)). CCCP concentration of 20 μM was used. pH adjustments were made by addition of HCl or NaOH. INT assay and ATP bioluminescence assays were performed as previously described (Farha, M. A., Verschoor, C. P., Bowdish, D. & Brown, E. D. Collapsing the proton motive force to identify synergistic combinations against Staphylococcus aureus. Chemistry & biology 20, 1168-1178, doi:10.1016/j.chembiol.2013.07.006 (2013)). For chemical-genomic studies, the Keio library was grown overnight in cation-adjusted MHB broth, in 384-well plates. From these, treatment plates (25 mM sodium bicarbonate, or a sterile water control) were inoculated and grown for 15 hours at 37° C., in a stationary incubator. Data was normalized according to Mangat et al (Mangat, C. S., Bharat, A., Gehrke, S. S. & Brown, E. D. Rank ordering plate data facilitates data visualization and normalization in high-throughput screening. J Biomol Screen 19, 1314-1320, doi:10.1177/1087057114534298 (2014)), with gene products and GO terms mined from EcoCyc. The GFP promoter library (Keseler, I. M. et al. EcoCyc: fusing model organism databases with systems biology. Nucleic Acids Res 41, D605-612, doi:10.1093/nar/gks1027 (2013)) was grown for 18 hours at ambient temperature with the same inoculation strategy as with the Keio collection. The analysis pipeline of Zaslaver et al (Zaslaver, A. et al. A comprehensive library of fluorescent transcriptional reporters for Escherichia coli. Nat Methods 3, 623-628, doi:10.1038/nmeth895 (2006)) was used to generate maps of promoter activity, from which lists of promoters with increased or decreased activity were compiled.

[2] = tested on: E. coli (K-12 BW25113); assay type: cell-based, Escherichia coli; set-up: MIC, E. coli, MHB− / MIC, E. coli, MHB+: unit not given here; details: for MIC, E. coli, MHB−: MHB without sodium bicarbonate
Protocol: as §1

[3] = fold enhancement of MIC with 25 mM sodium bicarbonate, negative = suppression

Compound	MIC, S. aureus, MHB− [1] [µg/mL]	MIC, E. coli, MHB+ [2]	Fold, S. aureus [1] [fold]	Fold, E. coli [2] [fold]	also measured
CC[C@H]1OC(=O)[C@H](C)[C@@H](O[C@H]2C[C@@](C)(OC)[C@@H](O)[C@H](C)O2)[C@H](C)[C@@H](O[C@@H]2O[C@H](C)C[C@H](N(C)C)[C@H]2O)[C@](C)(O)C[C@@H](C)C(=O)[C@H](C)[C@@H](O)[C@]1(C)O [Erythromycin]	32	32			
CO/N=C(\C(=O)N[C@@H]1C(=O)N2C(C(=O)O)=C(CSc3nc(=O)c(=O)[nH]n3C)CS[C@H]12)c1csc(N)n1 [Ceftriaxone]	4	0.625	−4	1	
N[C@@H]1CCCCN(c2c(F)cc3c(=O)c(C(=O)O)cn(C4CC4)c3c2Cl)C1 [Besifloxacin]	0.125	0.0313	−2	8	
CO[C@@H]1[C@@H](OC(N)=O)[C@@H](O)[C@H](Oc2ccc3c(O)c(NC(=O)c4ccc(O)c(CC=C(C)C)c4)c(=O)oc3c2C)OC1(C)C [Novobiocin]	0.031	>256	−16	−8	
C[C@@H]1O[C@@H]1P(=O)(O)O [Fosfomycin]	16	16	−4	−4	
CCn1cc(C(=O)O)c(=O)c2cc(F)c(N3CCNCC3)nc21 [Enoxacin]	1	0.125	−2	2	
Cc1onc(-c2ccccc2)c1C(=O)N[C@@H]1C(=O)N2[C@@H]1SC(C)(C)[C@@H]2C(=O)O [Oxacillin]	0.0625	>256	−16	−2	
Cc1onc(-c2ccccc2Cl)c1C(=O)N[C@@H]1C(=O)N2[C@@H]1SC(C)(C)[C@@H]2C(=O)O [Cloxacillin]	0.031	256	−16	1	
Neomycin		0.25	4	4	MIC, E. coli, MHB− [2]: 1
C[C@H]1c2cccc(O)c2C(=O)C2=C(O)[C@]3(O)C(=O)C(C(N)=O)=C(O)[C@@H](N(C)C)[C@@H]3[C@@H](O)[C@@H]21 [Doxycycline]	0.125	4	−16	−4	
Gentamicin		0.25	2	8	effect of CCCP pre-treatment on potentiation by sodium bicarbonate [2]: abolishes the potentiation; MIC, E. coli, MHB− [2]: 2
CC1(C)S[C@@H]2[C@H](NC(=O)[C@H](N)c3ccccc3)C(=O)N2[C@H]1C(=O)O [Ampicillin]	1	32	−8	−2	
CC(=O)NC[C@H]1CN(c2ccc(N3CCOCC3)c(F)c2)C(=O)O1 [Linezolid]	0.625	256	1	1	
CC[C@H]1OC(=O)[C@H](C)[C@@H](O[C@H]2C[C@@](C)(OC)[C@@H](O)[C@H](C)O2)[C@H](C)[C@@H](O[C@@H]2O[C@H](C)C[C@H](N(C)C)[C@H]2O)[C@](C)(O)C[C@@H](C)[C@@H]2N[C@@H](COCCOC)O[C@H]([C@H]2C)[C@]1(C)O [Dirithromycin]	4	4	8	32	
CCn1cc(C(=O)O)c(=O)c2ccc(C)nc21 [Nalidixic acid]	> 8	8	−4	−4	
COc1c(N2C[C@@H]3CCCN[C@@H]3C2)c(F)cc2c(=O)c(C(=O)O)cn(C3CC3)c12 [Moxifloxacin]	0.125	0.0156			
NC[C@H]1O[C@H](O[C@H]2[C@H](O)[C@@H](O[C@H]3O[C@H](CO)[C@@H](O)[C@H](N)[C@H]3O)[C@H](N)C[C@@H]2N)[C@H](O)[C@@H](O)[C@@H]1O [Kanamycin]	8	1	2	4	
O=CN(O)CCCP(=O)(O)O [Fosmidomycin]	> 64	32	1	−2	
CN[C@@H]1[C@@H](O[C@H]2O[C@H](CO)[C@@H](N)[C@H](O)[C@H]2O)OC2C[C@@H](N)[C@@H](O[C@H]3[C@H](O)[C@@H](O)[C@H](N)C[C@@H]3N)OC2[C@@H]1O (stereo partly drawn) [Apramycin]	16	8	0.5	4	
CN[C@@H]1[C@H](O)[C@H](NC)[C@H]2O[C@@]3(O)C(=O)C[C@@H](C)O[C@H]3O[C@@H]2[C@H]1O [Spectinomycin]	64	4	8	4	
CN[C@H](CC(C)C)C(=O)N[C@H]1C(=O)N[C@@H](CC(N)=O)C(=O)N[C@H]2C(=O)N[C@H]3C(=O)N[C@H](C(=O)N[C@H](C(=O)O)c4cc(O)cc(O)c4-c4cc3ccc4O)[C@H](O)c3ccc(c(Cl)c3)Oc3cc2cc(c3O[C@@H]2O[C@H](CO)[C@@H](O)[C@H](O)[C@H]2O[C@H]2C[C@](C)(N)[C@H](O)[C@H](C)O2)Oc2ccc(cc2Cl)[C@H]1O [Vancomycin]	1				Fold, S. aureus [1, 3]: −4 fold; Fold, E. coli [2, 3]: 1 fold
Lysozyme					MIC in MHB ([1]; S. aureus (strain Newman), MHB): >256 ** μg/mL; MIC in MHB + 25 mM bicarbonate ([1]; S. aureus (strain Newman), MHB + 25 mM sodium bicarbonate): >256 ** μg/mL; effect of physiological sodium bicarbonate on inhibitory activity ([2]; E. coli, 25 mM sodium bicarbonate): enhanced the inhibitory activity
CC1(C)S[C@@H]2[C@H](NC(=O)[C@H](N)c3ccc(O)cc3)C(=O)N2[C@H]1C(=O)O [Amoxicillin]	0.25	16	−4	−2	
CC[C@H](C)[C@H](N)C1=N[C@H](C(=O)N[C@@H](CC(C)C)C(=O)N[C@H](CCC(=O)O)C(=O)N[C@H](C(=O)N[C@H]2CCCCNC(=O)[C@H](CC(N)=O)NC(=O)[C@@H](CC(=O)O)NC(=O)[C@H](Cc3cnc[nH]3)NC(=O)[C@@H](Cc3ccccc3)NC(=O)[C@H]([C@@H](C)CC)NC(=O)[C@@H](CCCN)NC2=O)[C@@H](C)CC)CS1 [Bacitracin] ({Ileψ(thiazoline)Cys}-L[dE]IK[dOrn]I[dF]H[dD]N; lactam 4-C)	32	>256	−2	1	
CCN1CCN(C(=O)N[C@@H](C(=O)N[C@@H]2C(=O)N3[C@@H]2SC(C)(C)[C@@H]3C(=O)O)c2ccccc2)C(=O)C1=O [Piperacillin]	0.25	1	−4	2	
O=C(N[C@H](CO)[C@H](O)c1ccc([N+](=O)[O-])cc1)C(Cl)Cl [Chloramphenicol]	8	8	1	1	
Polymyxin B		0.5	8	−2	MIC, E. coli, MHB− [2]: 0.25
CCn1cc(C(=O)O)c(=O)c2cc(F)c(N3CCNCC3)cc21 [Norfloxacin]	0.5	0.0625	−2	2	
NC[C@@H]1O[C@H](O[C@H]2[C@@H](O)[C@H](O[C@@H]3[C@@H](O)[C@H](N)C[C@H](N)[C@H]3O[C@H]3O[C@H](CO)[C@@H](O)[C@H](O)[C@H]3N)O[C@@H]2CO)[C@H](N)[C@@H](O)[C@@H]1O [Paromomycin]	2	1	1	2	
